The values that follow come from ChEMBL document CHEMBL1201862, “PubChem BioAssay data set” (2004).

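Method: 48-hour compound exposure of cells in 96-well plates, five concentrations, linear interpolation of endpoints. The concentration for 50% growth inhibition is given as GI50.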 Calls of active or inactive are those of the source. No stated cut-off is given here; in the data, active = GI50 up to about 1.1 µM and inactive = higher.

Among the test systems are NCI-H23; SNB-75; NCI-H226; UO-31; NCI/ADR-RES; Malme-3M; SW-620; PC-3; NCI-H522; A549; DU-145; KM12; SF-295; MDA-MB-435; SK-MEL-28; HT-29; UACC-62; SK-MEL-5; OVCAR-5; HL-60.
Test in all cases: growth of human tumour cells (NCI), 48 h

Turning to `CCC(C)C(=O)OC1CC2(C)C(c3ccoc3)OC(=O)CC23OC2(C)OC34C(OC(=O)C(C)C)C3(O)C(OC(=O)C5(C)OC5C)C5(C)CC3(O)C(C)(C5CC(=O)OC)C14O2` (stereo not given), the GI50 in the experiment on NCI-H23 is 54.3 µM (inactive); in the experiment on SNB-75, 15.5 µM (inactive); with NCI-H226, 51.6 µM (inactive); in the experiment on UO-31, 35.9 µM (inactive); with NCI/ADR-RES it was 21.7 µM (inactive); in the experiment with Malme-3M, > 100 µM (inactive). Also, the GI50 in the experiment on SW-620 was 50 µM (inactive); in the experiment with PC-3, 31.8 µM (inactive); with NCI-H522, 37 µM (inactive); in the experiment on A549 it was 34.3 µM (inactive); in the experiment on DU-145, 68.2 µM (inactive); in the experiment with KM12 it was 43 µM (inactive). For the same compound, the GI50 in the experiment with SF-295 was 41.1 µM (inactive); with MDA-MB-435, 83 µM (inactive); in the experiment on SK-MEL-28, > 100 µM (inactive); in the experiment on HT-29, 29.7 µM (inactive); with UACC-62 it was 86.9 µM (inactive); with SK-MEL-5, 22.8 µM (inactive). For the same compound, the values for the GI50 in the experiment with OVCAR-5 and in the experiment with HL-60 were 91.2 µM (inactive) and 15.6 µM (inactive), respectively.

On to `CN(C)c1ccc(/C=C(\NC(=O)c2ccccc2)C(=O)Nc2ccccc2C(=O)NN2C(=O)CSC2c2ccc(N(C)C)cc2)cc1` (stereo not given), for which the GI50 in the experiment on NCI-H23, with SNB-75, in the experiment with NCI-H226, in the experiment with UO-31, in the experiment with NCI/ADR-RES and in the experiment on Malme-3M was > 100 µM (inactive) each time. Also, the GI50 in the experiment with SW-620 is > 100 µM (inactive); in the experiment on PC-3 it was > 100 µM (inactive); with NCI-H522, 40.6 µM (inactive); with A549, > 100 µM (inactive); in the experiment with DU-145, > 100 µM (inactive); with KM12, > 100 µM (inactive). The GI50 with SF-295 was > 100 µM (inactive); in the experiment on MDA-MB-435, 66.5 µM (inactive); with SK-MEL-28, > 100 µM (inactive); in the experiment with HT-29, > 100 µM (inactive); in the experiment on UACC-62 it was > 100 µM (inactive); in the experiment on SK-MEL-5 it was 94.6 µM (inactive). Also, the GI50 in the experiment on OVCAR-5 and in the experiment with HL-60 was > 100 µM (inactive) each time.

In the case of `Cc1ccc2c(O)cc(-c3cccc4ccccc34)nc2n1`, the GI50 with NCI-H23 was 0.0352 µM (active); in the experiment with SNB-75, 0.0116 µM (active); in the experiment on NCI-H226 it was 0.0398 µM (active); with UO-31 it was 0.189 µM (active); with NCI/ADR-RES, 0.0186 µM (active); in the experiment with Malme-3M it was < 0.01 µM (active). In addition, the GI50 was 0.0203 µM (active) with SW-620; 0.0282 µM (active) in the experiment with PC-3; < 0.0187 µM (active) in the experiment with NCI-H522; 0.032 µM (active) in the experiment on A549; 0.0392 µM (active) in the experiment with DU-145; 0.0241 µM (active) in the experiment with KM12. In addition, the GI50 in the experiment with SF-295 is 0.0193 µM (active); in the experiment with MDA-MB-435, < 0.01 µM (active); in the experiment on SK-MEL-28 it was 0.016 µM (active); in the experiment on HT-29 it was < 0.0116 µM (active); in the experiment on UACC-62 it was 0.01 µM (active); in the experiment on SK-MEL-5, < 0.0117 µM (active). For the same compound, the results for the GI50 in the experiment with OVCAR-5 and in the experiment with HL-60 were 0.0375 µM (active) and < 0.01 µM (active), respectively.

In the case of `C[C@@H]1CC(=O)[C@@]2(C)[C@](O)(CCC3O[C@]32C)[C@@]12CC(c1ccoc1)OC2=O` (stereo not given in full), the GI50 is > 100 µM (inactive) in the experiment on NCI-H23; 23.7 µM (inactive) in the experiment with SNB-75; > 100 µM (inactive) in the experiment with NCI-H226; > 100 µM (inactive) with UO-31; 46.2 µM (inactive) with NCI/ADR-RES; 50.7 µM (inactive) with Malme-3M. Also, the GI50 with SW-620 is 37.4 µM (inactive); in the experiment on PC-3, > 100 µM (inactive); in the experiment with NCI-H522, 45.6 µM (inactive); in the experiment on A549, > 100 µM (inactive); in the experiment on DU-145 it was > 100 µM (inactive); with KM12, > 100 µM (inactive). For the same compound, the GI50 in the experiment with SF-295 is > 100 µM (inactive); with MDA-MB-435, 42 µM (inactive); in the experiment on SK-MEL-28, > 100 µM (inactive); with HT-29 it was 48.5 µM (inactive); in the experiment on UACC-62, 56.9 µM (inactive); in the experiment on SK-MEL-5, 44.3 µM (inactive). Also, the values for the GI50 in the experiment on OVCAR-5 and in the experiment with HL-60 were > 100 µM (inactive) and 24.9 µM (inactive), respectively.

For the compound `COc1ccc2nc3ccc(OC)cc3c(SCCO)c2c1`, the GI50 in the experiment on NCI-H23 was 16.2 µM (inactive); with SNB-75, 28.6 µM (inactive); in the experiment with NCI-H226, > 61.7 µM (inactive); in the experiment with UO-31 it was 29.3 µM (inactive); with NCI/ADR-RES it was 27 µM (inactive); in the experiment with Malme-3M, 15.6 µM (inactive). Further, the GI50 in the experiment with SW-620 is 28.4 µM (inactive); with PC-3 it was 27.4 µM (inactive); in the experiment with NCI-H522 it was 4.56 µM (inactive); with A549 it was > 78.7 µM (inactive); in the experiment with DU-145, 5.65 µM (inactive); in the experiment with KM12, 22.5 µM (inactive). Besides, the GI50 with SF-295 is 49.2 µM (inactive); with MDA-MB-435, 21.5 µM (inactive); in the experiment on SK-MEL-28, 55.8 µM (inactive); in the experiment on HT-29, 17.3 µM (inactive); in the experiment on UACC-62 it was 38.5 µM (inactive); in the experiment with SK-MEL-5 it was 32.1 µM (inactive). Also, the GI50 was > 100 µM (inactive) with OVCAR-5 and 4.17 µM (inactive) in the experiment with HL-60.

`COC(=O)c1c2c(cc3c1CC1(C3)Cc3ccc4c(c3C1=O)CCC4)CCC2` (stereo not given): the GI50 in the experiment on NCI-H23 is 3.74 µM (inactive); in the experiment with SNB-75, 4.33 µM (inactive); in the experiment with NCI-H226, 5.09 µM (inactive); with UO-31, 3.05 µM (inactive); with NCI/ADR-RES it was 1.92 µM (inactive); with Malme-3M, 3.39 µM (inactive). In addition, the GI50 with SW-620 was 4.07 µM (inactive); with PC-3, 1.79 µM (inactive); in the experiment on NCI-H522, 1.66 µM (inactive); in the experiment on A549, 4.88 µM (inactive); in the experiment on DU-145, 4.65 µM (inactive); in the experiment on KM12, 2.64 µM (inactive). For the same compound, the GI50 was 2.12 µM (inactive) with SF-295; 0.6 µM (active) in the experiment on MDA-MB-435; 6.67 µM (inactive) with SK-MEL-28; 2.58 µM (inactive) in the experiment with HT-29; 2.26 µM (inactive) with UACC-62; 2.38 µM (inactive) in the experiment on SK-MEL-5. Besides, the GI50 with OVCAR-5 is > 21.1 µM (inactive); in the experiment with HL-60, 2.52 µM (inactive).

As for `CCN(CC)CCNc1c2ccccc2nc2cccc([N+](=O)[O-])c12`, the GI50 with NCI-H23 is 0.00787 µM (active); in the experiment with SNB-75, 0.0176 µM (active); in the experiment on NCI-H226, 0.0179 µM (active); in the experiment on UO-31, 0.0198 µM (active); with NCI/ADR-RES it was 0.0112 µM (active); with Malme-3M, 0.00953 µM (active). In addition, the GI50 was 0.0116 µM (active) in the experiment on SW-620; 0.00301 µM (active) in the experiment on PC-3; 0.00434 µM (active) in the experiment with NCI-H522; 0.00826 µM (active) with A549; 0.0031 µM (active) with DU-145; 0.0352 µM (active) with KM12. In addition, the GI50 is 0.00912 µM (active) with SF-295; 0.00164 µM (active) in the experiment on MDA-MB-435; 0.04 µM (active) with SK-MEL-28; 0.0122 µM (active) with HT-29; 0.0143 µM (active) in the experiment with UACC-62; 0.00902 µM (active) in the experiment on SK-MEL-5. Further, the GI50 was 0.0101 µM (active) in the experiment on OVCAR-5 and 0.046 µM (active) in the experiment with HL-60.

Regarding `COc1ccc(C2(CC(C)C)CCNC2)cc1OC` (stereo not given), the GI50 was 78.2 µM (inactive) in the experiment on NCI-H23; 8.18 µM (inactive) in the experiment on SNB-75; > 100 µM (inactive) in the experiment with NCI-H226; 50.9 µM (inactive) in the experiment on UO-31; > 100 µM (inactive) in the experiment on NCI/ADR-RES; > 100 µM (inactive) with Malme-3M. Moreover, the GI50 in the experiment on SW-620, with PC-3, in the experiment on NCI-H522, in the experiment on A549, with DU-145 and in the experiment on KM12 was > 100 µM (inactive) in each case. For the same compound, the GI50 in the experiment with SF-295 was > 100 µM (inactive); in the experiment on MDA-MB-435 it was > 100 µM (inactive); with SK-MEL-28, > 100 µM (inactive); with HT-29, 39.1 µM (inactive); in the experiment with UACC-62, > 100 µM (inactive); with SK-MEL-5, > 100 µM (inactive). In addition, the GI50 in the experiment on OVCAR-5 and in the experiment on HL-60 was > 100 µM (inactive) throughout.
